Test results reported in US9090601B2, “Thiazole derivatives” (Millennium Pharmaceuticals, Inc., priority 2009, dated 2015).
pIC50: −log10 of the molar value.

Key:
Assay type in all cases: biochemical
PI3Kalpha = biological target: T1, PI3Kalpha (Homo sapiens, UniProt P42336); assay: PI3K alpha enzyme assay (HTRF); details: PI3Kalpha 0.4875 nM, ATP 25 uM, di-C8 PI(4,5)P2 3.5 uM, 30 min room temperature; read-out: IC50 (inhibit PI3Kalpha)
T1 construct: His (N); host or cells: baculovirus expression system (insect cells)
T1 sequence (P42336 whole entry): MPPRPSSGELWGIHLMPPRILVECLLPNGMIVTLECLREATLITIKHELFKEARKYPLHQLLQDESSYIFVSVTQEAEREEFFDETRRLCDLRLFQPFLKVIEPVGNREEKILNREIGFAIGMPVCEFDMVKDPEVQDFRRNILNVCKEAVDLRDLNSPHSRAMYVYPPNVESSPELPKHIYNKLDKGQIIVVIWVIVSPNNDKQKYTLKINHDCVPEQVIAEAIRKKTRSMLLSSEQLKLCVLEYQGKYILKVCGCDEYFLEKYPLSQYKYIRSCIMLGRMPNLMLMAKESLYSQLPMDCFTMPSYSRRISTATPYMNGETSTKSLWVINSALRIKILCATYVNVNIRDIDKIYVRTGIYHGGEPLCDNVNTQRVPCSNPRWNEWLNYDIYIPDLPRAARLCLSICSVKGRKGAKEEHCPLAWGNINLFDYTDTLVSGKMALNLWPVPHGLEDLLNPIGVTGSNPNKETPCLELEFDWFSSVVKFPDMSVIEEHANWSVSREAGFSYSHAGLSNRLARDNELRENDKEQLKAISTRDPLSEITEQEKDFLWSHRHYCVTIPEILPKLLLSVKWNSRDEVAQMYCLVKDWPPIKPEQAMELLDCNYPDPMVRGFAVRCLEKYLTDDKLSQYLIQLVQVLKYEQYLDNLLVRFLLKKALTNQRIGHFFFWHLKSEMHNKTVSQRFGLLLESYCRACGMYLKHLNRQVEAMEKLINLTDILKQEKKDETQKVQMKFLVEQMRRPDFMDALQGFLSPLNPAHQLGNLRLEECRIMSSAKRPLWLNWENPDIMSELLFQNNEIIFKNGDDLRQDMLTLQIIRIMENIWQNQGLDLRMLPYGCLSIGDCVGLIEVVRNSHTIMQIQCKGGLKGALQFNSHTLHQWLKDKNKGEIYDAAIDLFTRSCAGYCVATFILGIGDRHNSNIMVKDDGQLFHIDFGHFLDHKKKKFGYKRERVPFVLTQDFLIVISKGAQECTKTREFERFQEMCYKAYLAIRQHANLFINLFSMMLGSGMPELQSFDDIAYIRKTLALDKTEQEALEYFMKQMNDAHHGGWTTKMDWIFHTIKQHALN
T1 sequence (P27986 whole entry partner): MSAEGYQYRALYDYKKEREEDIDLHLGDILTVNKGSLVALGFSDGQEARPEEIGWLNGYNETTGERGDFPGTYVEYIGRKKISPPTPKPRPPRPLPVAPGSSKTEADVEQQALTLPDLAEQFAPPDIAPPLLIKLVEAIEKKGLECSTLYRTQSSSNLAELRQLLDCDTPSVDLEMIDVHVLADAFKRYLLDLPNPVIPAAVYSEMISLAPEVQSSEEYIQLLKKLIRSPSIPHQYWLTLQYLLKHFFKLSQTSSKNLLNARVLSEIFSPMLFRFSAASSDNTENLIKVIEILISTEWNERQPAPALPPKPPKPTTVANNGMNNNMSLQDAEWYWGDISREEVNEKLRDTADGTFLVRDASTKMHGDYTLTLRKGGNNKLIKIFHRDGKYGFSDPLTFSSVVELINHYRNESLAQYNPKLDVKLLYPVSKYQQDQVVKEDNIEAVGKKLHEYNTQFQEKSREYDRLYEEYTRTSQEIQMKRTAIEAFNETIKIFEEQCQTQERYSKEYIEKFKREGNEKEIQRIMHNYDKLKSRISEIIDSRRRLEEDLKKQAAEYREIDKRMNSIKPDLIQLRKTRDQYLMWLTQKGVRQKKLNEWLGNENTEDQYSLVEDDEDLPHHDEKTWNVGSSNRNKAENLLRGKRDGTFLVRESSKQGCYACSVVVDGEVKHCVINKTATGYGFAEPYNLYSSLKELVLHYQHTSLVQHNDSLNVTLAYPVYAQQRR
Method: 0.5 uL compounds in DMSO are added to wells of a 384 well microtitre plate (Corning 3575). At room temperature: 10 ul PI3K reaction buffer (50 mM Hepes, 5 mM DTT, 150 mM NaCl, 10 mM beta-glycerophosphate, 10 mM MgCl2, 0.25 mM sodium cholate and 0.001% CHAPS, pH 7.00) containing ATP (25 uM, Promega) is added followed immediately by 10 ul PI3K reaction buffer containing di-C8 PI(4,5)P2 (3.5 uM, CellSignals) and PI3Kalpha (0.4875 nM, Millennium Protein Sciences Group) and the mixture is incubated with shaking at room temperature for 30 minutes. Then 5 ul PI3K stop mix (50 mM Hepes, 5 mM DTT, 150 mM NaCl, 0.01% Tween-20, 15 mM EDTA and 25 nM biotin-PI(3,4,5)P3 (Echelon) is added to quench the reaction followed immediately by addition of 5 ul HTRF detection mix (50 mM Hepes, 5 mM DTT, 150 mM NaCl, 0.01% Tween-20, 40 mM KF, 10 nM GST:GRP-1 PH domain (Millennium Protein Sciences Group), 15 nM Streptavidin-XL (CisBio) and 0.375 nM anti-GST Eu++ antibody (CisBio) at pH 7.00). The plates are then incubated for 1 hour at room temperature with shaking and then read on a BMG PheraStar Plus reader.

human mTOR = biological target: T2, human mTOR (Homo sapiens, UniProt P42345); assay: Human mTOR enzyme assay (Z'-lyte peptide FRET); details: mTOR enzyme activity, compound at 1.0 μm, 10 μM ATP
T2 construct: purchased Invitrogen
T2 sequence (P42345 1360-2549 limits assumed): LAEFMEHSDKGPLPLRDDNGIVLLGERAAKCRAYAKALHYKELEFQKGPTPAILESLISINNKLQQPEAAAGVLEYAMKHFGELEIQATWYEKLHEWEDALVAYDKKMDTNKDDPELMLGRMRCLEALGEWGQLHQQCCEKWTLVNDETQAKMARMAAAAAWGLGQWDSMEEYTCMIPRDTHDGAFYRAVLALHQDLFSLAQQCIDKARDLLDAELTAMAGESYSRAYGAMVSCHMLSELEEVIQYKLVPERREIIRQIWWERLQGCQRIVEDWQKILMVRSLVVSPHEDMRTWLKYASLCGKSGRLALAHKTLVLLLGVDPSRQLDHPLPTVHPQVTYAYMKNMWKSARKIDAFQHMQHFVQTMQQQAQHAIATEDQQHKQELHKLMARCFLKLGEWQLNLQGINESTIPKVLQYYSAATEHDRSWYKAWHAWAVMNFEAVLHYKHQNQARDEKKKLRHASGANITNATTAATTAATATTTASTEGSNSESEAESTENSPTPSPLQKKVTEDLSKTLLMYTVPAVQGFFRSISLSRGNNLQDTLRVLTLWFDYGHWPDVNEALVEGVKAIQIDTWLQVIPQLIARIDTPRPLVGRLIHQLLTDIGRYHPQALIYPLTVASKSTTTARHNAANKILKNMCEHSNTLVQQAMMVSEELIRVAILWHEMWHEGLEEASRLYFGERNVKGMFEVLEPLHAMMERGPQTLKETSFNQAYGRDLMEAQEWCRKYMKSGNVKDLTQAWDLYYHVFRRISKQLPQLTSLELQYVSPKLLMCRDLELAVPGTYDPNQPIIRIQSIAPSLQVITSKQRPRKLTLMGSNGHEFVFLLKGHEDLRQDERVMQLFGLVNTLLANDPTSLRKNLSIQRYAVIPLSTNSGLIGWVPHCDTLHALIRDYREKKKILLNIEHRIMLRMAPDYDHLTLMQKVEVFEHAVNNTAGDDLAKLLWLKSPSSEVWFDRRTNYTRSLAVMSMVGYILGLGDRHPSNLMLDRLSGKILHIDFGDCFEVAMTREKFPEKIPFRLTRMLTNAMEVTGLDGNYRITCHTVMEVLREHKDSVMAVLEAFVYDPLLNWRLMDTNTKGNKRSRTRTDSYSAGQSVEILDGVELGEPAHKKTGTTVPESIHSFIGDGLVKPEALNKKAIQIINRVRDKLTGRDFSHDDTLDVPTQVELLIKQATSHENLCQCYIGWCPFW
Method: mTOR reaction buffer (50 mM HEPES, pH 7.5, 5 mM MgCl2, 5 mM MnCl2, 1 mM EGTA, 1 mM DTT, 0.01% BRIJ-35, 0.01% NaN3) containing human mTOR (Invitrogen), 10 μM ATP and 2 μM Z′-lyte 11Ser/Thr peptide (Invitrogen) is added to the well and the mixture is reacted at room temperature for 1 hr.
Development Buffer containing Development Reagent B (for Z′-lyte peptide, Invitrogen) was added, and the mixture is reacted at room temperature for 30 min. The fluorescence at 520 nm and fluorescence at 445 nm are measured with excitation at 400 nm using SpectraMax M5e (Molecular Device). The ratio of the obtained 445 nm fluorescence value/520 nm fluorescence value is calculated, and changes in the fluorescence resonance energy transfer (FRET) of Z′-lyte peptide are detected as the enzyme activity.

[1] = biological target: T3, hPI3Kα (p110alpha catalytic subunit and human p85alpha regulatory subunit complex) (Homo sapiens, UniProt P42336); assay: Human PI3Kα enzyme assay (Phospholipid FlashPlate, γ-[33P] ATP); details: PI3Kα enzyme activity, compound at 1.0 μm, 500 nM ATP
T3 construct: made in house; host or cells: Sf21 insect cells (baculovirus, Bac-to-Bac)
T3 sequence (P42336 whole entry): as the sequence (P42336 whole entry) above
T3 sequence (P27986 whole entry partner): as the sequence (P27986 whole entry partner) above
Method: hPIK3CA; p110alpha catalytic subunit (GenBank ACCESSION# NM_006218) and hPIK3R1; p85alpha regulatory subunit (GenBank ACCESSION# NM_181523) are cloned from human cDNA library (Clonetec).
Human p110alpha catalytic subunit gene and human p85alpha regulatory subunit gene are respectively inserted into pFASTBacHT (Invitrogen), and each gene was introduced into a baculovirus vector using a Bac-to-Bac system (Invitrogen). Both viruses are injected to insect cultured cells Sf21 to allow coexpression of proteins. p110alpha catalytic subunit and human p85alpha regulatory subunit complex (hPI3Kα) are purified from the cell extract using a Ni chelate column.
L-alpha-Phosphatidyl-D-myo-inositol 4,5-Diphosphate (diC16) [PI(4,5)P2, Wako Pure Chemical Industries, Ltd.] is suspended in Phospholipid FlashPlate Coating Buffer (PerkinElmer) and applied onto Phospholipid FlashPlate PLUS. PI3K reaction buffer (50 mM Tris-HCl, pH 7.4, 5 mM MgCl2, 1 mM DTT, 0.005% BSA) containing hPI3Kα, γ-[^33P] ATP (PerkinElmer) and cold 500 nM ATP is added to the wells on this plate and the mixture is reacted at room temperature for 1 hr. 50 mM EDTA solution is added to quench the reaction, and the wells are washed with PBS. The radioactivity remaining in the well is measured as enzyme activity by TopCount (PerkinElmer).

Row | Structure (SMILES) | pIC50 (PI3Kalpha) | other results
1 | CC(=O)Nc1cccc(-c2nc(-c3ccnc(NC(C)=O)c3)sc2-c2ncc[nH]2)c1 [Example 72-C] | < 6.00 | –
2 | CC(=O)Nc1cc(-c2nc(-c3ccccc3Cl)c(C(=O)NCCO)s2)ccn1 [Example 48-C, 2-[2-(acetylamino)pyridin-4-yl]-4-(2-chlorophenyl)-N-(2-hydroxyethyl)-1,3-thiazole-5-carboxamide] | < 6.00 | –
3 | CCOc1nc(-c2ccnc(NC(=O)C(C)(C)C)c2)sc1-c1nnc[nH]1 [Example 66-B, N-{4-[4-ethoxy-5-(4H-1,2,4-triazol-3-yl)-1,3-thiazol-2-yl]pyridin-2-yl}-2,2-dimethylpropanamide] | < 6.00 | –
4 | CC(=O)Nc1cc(-c2nc(-c3ccccc3Cl)c(-c3ncc[nH]3)s2)c(C)cn1 [Example 30-C] | < 6.00 | –
5 | CC(=O)Nc1cc(-c2nc(-c3ccc(-c4nnc(C)o4)cc3)c(-c3ncc[nH]3)s2)ccn1 [Example 8-C] | < 6.00 | –
6 | COc1ccc(-c2nc(-c3ccnc(NC(C)=O)c3)sc2-c2ncc[nH]2)cc1 [Example 62-C] | < 6.00 | –
7 | Cc1nn2ccc(OCCN3CCOCC3)cc2c1-c1nc(-c2ccccc2)c(-c2nnc[nH]2)s1 [Example 31-B, 2-methyl-5-(2-morpholin-4-ylethoxy)-3-[4-phenyl-5-(4H-1,2,4-triazol-3-yl)-1,3-thiazol-2-yl]pyrazolo[1,5-a]pyridine di-p-toluenesulfonate] | – | Inhibitory rate at 1.0 μm (%) (human mTOR): 93%
8 | CCOc1nc(-c2ccnc(NC(=O)c3sccc3C)c2)sc1-c1nnc[nH]1 [Example 52-B, N-{4-[4-ethoxy-5-(4H-1,2,4-triazol-3-yl)-1,3-thiazol-2-yl]pyridin-2-yl}-3-methylthiophene-2-carboxamide] | < 6.00 | –
9 | Cc1nc2cccnn2c1-c1nc(-c2ccccc2)c(-c2nnc[nH]2)s1 [Example 41-B, 2-methyl-3-[4-phenyl-5-(4H-1,2,4-triazol-3-yl)-1,3-thiazol-2-yl]imidazo[1,2-b]pyridazine] | < 6.00 | –
10 | Cc1nn2ccc(OCCN3CCCCC3)cc2c1-c1nc(-c2ccccc2)c(-c2nnc[nH]2)s1 [Example 32-B, 2-methyl-3-[4-phenyl-5-(4H-1,2,4-triazol-3-yl)-1,3-thiazol-2-yl]-5-(2-piperidin-1-ylethoxy)pyrazolo[1,5-a]pyridine di-p-toluenesulfonate] | – | Inhibitory rate at 1.0 μm (%) [1]: 100%
11 | CC(=O)Nc1cc(-c2nc(-c3ccccc3)c(-c3ncc[nH]3)s2)c(C)cn1 [Example 36-C] | < 6.00 | –
12 | CC(=O)Nc1cc(-c2nc(-c3ccc(F)c(CO)c3)c(-c3ncc[nH]3)s2)ccn1 [Example 47-C] | < 6.00 | –
13 | CC(=O)Nc1cc(-c2nc(-c3ccncc3)c(-c3ncc[nH]3)s2)ccn1 [Example 27-C] | < 6.00 | –
14 | CC(=O)Nc1cc(-c2nc(Br)c(-c3ncc[nH]3)s2)ccn1 [Example 58-C] | < 6.00 | –
15 | CCOc1nc(-c2ccnc(NC(=O)c3ccccc3Cl)c2)sc1-c1nnc[nH]1 [Example 54-B, 2-chloro-N-{4-[4-ethoxy-5-(4H-1,2,4-triazol-3-yl)-1,3-thiazol-2-yl]pyridin-2-yl}benzamide] | < 6.00 | –
16 | CC(=O)Nc1cc(-c2nc(-c3cccc(-n4cccn4)c3)c(-c3ncc[nH]3)s2)ccn1 [Example 14-C] | < 6.00 | –
17 | CCOc1nc(-c2ccnc(NC(=O)c3ccncc3)c2)sc1-c1nnc[nH]1 [Example 67-B, N-{4-[4-ethoxy-5-(4H-1,2,4-triazol-3-yl)-1,3-thiazol-2-yl]pyridin-2-yl}pyridine-4-carboxamide] | < 6.00 | –

Row | Structure (SMILES) | pIC50 (PI3Kalpha) | other results
18 | CC(=O)Nc1cc(-c2nc(-c3ccc(Oc4ccccc4)cc3)c(-c3ncc[nH]3)s2)ccn1 [Example 60-C] | < 6.00 | –
19 | CCOc1nc(-c2ccnc(NC(=O)c3ccccc3C)c2)sc1-c1nnc[nH]1 [Example 68-B, N-{4-[4-ethoxy-5-(4H-1,2,4-triazol-3-yl)-1,3-thiazol-2-yl]pyridin-2-yl}-2-methylbenzamide] | < 6.00 | –
20 | CC(=O)Nc1cc(-c2nc(-c3ccccc3Cl)c(C(=O)NC[C@@H](C)O)s2)ccn1 [Example 4-C] | < 6.00 | –
21 | C=CCOc1nc(-c2c(C)nn3ccccc23)sc1-c1nnc[nH]1 [Example 27-B, 2-methyl-3-[4-(prop-2-en-1-yloxy)-5-(4H-1,2,4-triazol-3-yl)-1,3-thiazol-2-yl]pyrazolo[1,5-a]pyridine] | – | Inhibitory rate at 1.0 μm (%) [1]: 100%
22 | COc1cnc(NC(C)=O)cc1-c1nc(-c2ccc(Cl)cc2Cl)c(-c2ncc[nH]2)s1 [Example 18-C] | < 6.00 | –
23 | COc1ccc(-c2nc(-c3ccnc(NC(C)=O)c3)sc2-c2ncc[nH]2)cc1OC [Example 16-C] | < 6.00 | –
24 | Cc1nn2ccsc2c1-c1nc(-c2ccccc2)c(-c2nnc[nH]2)s1 [Example 35-B, 6-methyl-7-[4-phenyl-5-(4H-1,2,4-triazol-3-yl)-1,3-thiazol-2-yl]pyrazolo[5,1-b][1,3]thiazole acetate] | – | Inhibitory rate at 1.0 μm (%) [1]: 101%
25 | CCOc1nc(-c2ccnc(NC(=O)C3CCCCC3)c2)sc1-c1nnc[nH]1 [Example 50-B, N-{4-[4-ethoxy-5-(4H-1,2,4-triazol-3-yl)-1,3-thiazol-2-yl]pyridin-2-yl}cyclohexanecarboxamide] | < 6.00 | –
26 | COc1cccc(OC)c1-c1nc(-c2c(C)nn3ccccc23)sc1-c1nc[nH]n1 [Example 102-B, 3-[4-(2,6-dimethoxyphenyl)-5-(1H-1,2,4-triazol-3-yl)-1,3-thiazol-2-yl]-2-methylpyrazolo[1,5-a]pyridine] | < 6.00 | –
27 | CC(=O)Nc1cc(-c2nc(-c3ccccc3Cl)c(-c3nnc[nH]3)s2)c(C)cn1 [Example 65-C] | < 6.00 | –
28 | Cc1nn2c(c1-c1nc(C3CCCCC3)c(-c3nnc[nH]3)s1)CCCC2 [Example 19-B, 3-[4-cyclohexyl-5-(4H-1,2,4-triazol-3-yl)-1,3-thiazol-2-yl]-2-methyl-4,5,6,7-tetrahydropyrazolo[1,5-a]pyridine] | < 6.00 | –
29 | CC(=O)Nc1cc(-c2nc(-c3c(C)cccc3C)c(-c3nnc[nH]3)s2)ccn1 [Example 56-C, N-{4-[4-(2,6-dimethylphenyl)-5-(4H-1,2,4-triazol-3-yl)-1,3-thiazol-2-yl]pyridin-2-yl}acetamide] | < 6.00 | –
30 | CCOc1nc(-c2ccnc(NC(=O)c3ccccn3)c2)sc1-c1nnc[nH]1 [Example 49-B, N-{4-[4-ethoxy-5-(4H-1,2,4-triazol-3-yl)-1,3-thiazol-2-yl]pyridin-2-yl}pyridine-2-carboxamide] | < 6.00 | –
31 | COCCNC(=O)c1sc(-c2ccnc(NC(C)=O)c2)nc1-c1ccccc1Cl [Example 64-C] | < 6.00 | –
32 | CC(=O)Nc1cc(-c2nc(-c3ccc(OC(C)C)cc3)c(-c3ncc[nH]3)s2)ccn1 [Example 46-C] | < 6.00 | –
33 | Cc1nn2ccc(OCCO)cc2c1-c1nc(-c2ccccc2)c(-c2nnc[nH]2)s1 [Example 33-B, 2-({2-methyl-3-[4-phenyl-5-(4H-1,2,4-triazol-3-yl)-1,3-thiazol-2-yl]pyrazolo[1,5-a]pyridin-5-yl}oxy)ethanol] | – | Inhibitory rate at 1.0 μm (%) (human mTOR): 91%
34 | CCOc1nc(-c2ccnc(NC(=O)c3c(F)cccc3F)c2)sc1-c1nnc[nH]1 [Example 71-B, N-{4-[4-ethoxy-5-(4H-1,2,4-triazol-3-yl)-1,3-thiazol-2-yl]pyridin-2-yl}-2,6-difluorobenzamide] | < 6.00 | –
